# According to patent publication US8648089B2, “1,3,6-substituted indole derivatives having inhibitory activity for protein kinase” (Korea Institute of Science and Technology, priority 2009, dated 2014):
# System: A375 melanoma cells
# Test: not given
# Conditions: read-out: proliferation of A375 melanoma cells IC50; cited from earlier work
row,Molecule,IC50
1,CCCS(=O)(=O)Nc1ccc(F)c(C(=O)c2c[nH]c3ncc(Cl)cc23)c1F [PLX4720],0.5 µM

# Target: B-Raf-V600E kinase (Homo sapiens, UniProt P15056, V600E)
# Sequence (P15056 whole entry V600E): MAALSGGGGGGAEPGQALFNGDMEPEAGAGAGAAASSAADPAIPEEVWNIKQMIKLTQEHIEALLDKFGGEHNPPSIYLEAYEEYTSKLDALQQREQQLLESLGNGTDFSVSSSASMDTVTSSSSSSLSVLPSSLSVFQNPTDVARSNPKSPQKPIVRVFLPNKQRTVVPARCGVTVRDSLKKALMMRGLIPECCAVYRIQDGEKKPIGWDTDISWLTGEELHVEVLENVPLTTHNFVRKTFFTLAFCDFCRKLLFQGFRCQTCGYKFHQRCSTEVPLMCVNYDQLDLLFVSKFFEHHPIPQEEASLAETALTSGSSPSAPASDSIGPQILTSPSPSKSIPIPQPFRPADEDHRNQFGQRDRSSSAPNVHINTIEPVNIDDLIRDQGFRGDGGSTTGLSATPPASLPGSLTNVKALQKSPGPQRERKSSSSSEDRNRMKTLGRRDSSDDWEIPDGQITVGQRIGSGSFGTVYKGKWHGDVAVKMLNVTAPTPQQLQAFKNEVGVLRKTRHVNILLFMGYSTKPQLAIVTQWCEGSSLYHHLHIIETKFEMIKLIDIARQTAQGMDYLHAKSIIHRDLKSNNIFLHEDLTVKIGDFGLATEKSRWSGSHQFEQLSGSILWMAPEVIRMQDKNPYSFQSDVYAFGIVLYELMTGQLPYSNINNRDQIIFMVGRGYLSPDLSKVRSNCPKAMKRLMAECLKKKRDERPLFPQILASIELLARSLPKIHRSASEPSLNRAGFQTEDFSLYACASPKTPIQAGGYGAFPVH
# Test: B-Raf kinase activity (kinase cascade assay)
# Format: biochemical
# Conditions: MEK1/Erk2/MBP, [γ-32P] ATP, read-out: B-Raf-V600E kinase inhibitory activity (IC50)
# Procedure: Measurement of B-Raf Kinase Activity (Kinase Cascade Assay)
# (1) Activation of MAP Kinase 2/Erk2 by B-Raf
# Magnesium/ATP solution (500 μM ATP, 75 mM magnesium chloride) was prepared (10 μL). Diluted B-Raf-V600E enzyme (2.5 μL) was added at a final concentration of 1 ng/mL. and inactivated MEK1 (1.6 μL) was added at a final concentration of 0.4 μg/mL. Then, inactivated MAP Kinase 2/Erk2 (4 μL) was added at a final concentration of 1.0 μg/mL. The test compound was prepared at a concentration of 10 mM in dimethylsulfoxide (DMSO) and diluted to various concentrations (DMSO 2.6%). The final volume was adjusted to 38 μL by adding Assay Dilution Butter I (ADBI) and the mixture was allowed to react at 30° C. for 30 minutes. 5 μL of the mixture solution was taken to perform the next process.
# (2) Phosphorylation of Myelin Basic Protein (MBP)
# The mixture solution (5 μL) was treated with assay dilution buffer (10 μL) and then with myelin basic protein (MBP, 2 mg/mL, 10 μL). [γ-32P] ATP (100 μCi/container) diluted to 1/10 was added in 10 μL aliquots. After reaction at 30° C. for […] and then placing P81 paper in a scintillation vial, spotting was performed slowly using 25 μL of the reaction mixture. After washing 4 times with 0.75% phosphoric acid for 10 minutes and washing once with acetone for 5 minutes, 5 mL of scintillation cocktail was added to the scintillation vial. Signals were recorded using a scintillation counter.
row,IC50,Molecule
1,< 10 µM,"CC(=O)Nc1cccc(-c2ccc3c(-c4ccc(OCCN(C)C)cc4)cn(-c4ccncc4)c3c2)c1 [Example 25, N-(3-(3-(4-(2-(dimethylamino)ethoxy)phenyl)-1-(pyridin-4-yl)-1H-indol-6-yl)phenyl)acetamide]"
2,< 10 µM,"CNc1cc(-n2cc(-c3ccc(OC)cc3)c3ccc(-c4cccc(NC(=O)Nc5ccccc5OC)c4)cc32)ncn1 [Example 39, 1-(2-methoxyphenyl)-3-(3-(3-(4-methoxyphenyl)-1-(6-(methylamino)pyrimidin-4-yl)-1H-indol-6-yl)phenyl)urea]"
3,< 10 µM,4-(6-(4-methoxyphenyl)-1-(6-(methylamino)pyrimidin-4-yl)-1H-indol-3-yl)benzoate [Example 30]
4,< 10 µM,"CNc1cc(-n2cc(-c3cccc(N)c3)c3ccc(-c4ccc(OC)cc4)cc32)ncn1 [Example 27, 6-(3-(3-aminophenyl)-6-(4-methoxyphenyl)-1H-indol-1-yl)-N-methylpyrimidin-4-amine]"

# System: A375P cells
# Test: Inhibitory activity against proliferation of A375P melanoma cells (MTT assay)
# Format: cell-based
# Conditions: A375P human melanoma cells with B-Raf-V600E
# Procedure: Measurement of Inhibitory Activity Against Proliferation of A375P Melanoma Cells
# A375P cells purchased from ATCC were cultured in DMEM [10% FBS, 1% penicillin/streptomycin] at 37° C. in the presence of 5% CO2. The cultured A375P cells were harvested with 0.05% trypsin-0.02% EDTA and seeded in a 96-well plate at 5×10^3 cells per well.
# 3-(4,5-Dimethylthiazol-2-yl)-2,5-diphenyltetrazolium bromide (MTT) assay (CellTiter 96 Assay, Promega) was employed to measure cell viability. After adding 15 μL of a dye per well and culturing for 2 hours, the cells were treated with 100 μL of a stop solution and absorbance was measured 24 hours later. The test compound was treated a day after plating. The test compound had been sequentially diluted at 12 concentrations from a 10 mM stock solution using sterilized dimethylsulfoxide (DMSO) and treated with an amount of 0.5 μL. Absorbance at 590 nm was recorded using EnVision2103, and GI50 value was calculated using GraphPad Prism 4.0 software.
# The inhibitory activity against proliferation of the A375P cells of some typical compounds according to the present invention is given in Table 2.
row,Molecule,GI50
1,"COc1ccc(-c2cn(-c3ccncc3)c3cc(N4CCN(C(=O)OC(C)(C)C)CC4)ccc23)cc1 [Example 13, tert-butyl 4-(3-(4-methoxyphenyl)-1-(pyridin-4-yl)-1H-indol-6-yl)piperazine-1-carboxylate]",< 10 µM
2,"COc1ccc(-c2cn(-c3ccncc3)c3cc(N4CCNCC4)ccc23)cc1 [Example 14, 3-(4-methoxyphenyl)-6-(piperazin-1-yl)-1-(pyridin-4-yl)-1H-indole]",< 10 µM
3,"CNc1cc(-n2cc(-c3cccc(NC(C)=O)c3)c3ccc(-c4ccc(OC)cc4)cc32)ncn1 [Example 28, N-(3-(6-(4-methoxyphenyl)-1-(6-(methylamino)pyrimidin-4-yl)-1H-indol-3-yl)phenyl)acetamide]",< 10 µM
4,"O=[N+]([O-])c1cccc(-c2ccc3c(Br)cn(-c4cc(Cl)ncn4)c3c2)c1 [Example 9, 3-bromo-1-(6-chloropyrimidin-4-yl)-6-(3-nitrophenyl)-1H-indole]",< 10 µM
5,"COc1ccc(-c2cn(-c3ccnc([S+](C)[O-])n3)c3cc(-c4cccc([N+](=O)[O-])c4)ccc23)cc1 (stereo not drawn) [Example 33, 3-(4-methoxyphenyl)-1-(2-(methylsulfinyl)pyrimidin-4-yl)-6-(3-nitrophenyl)-1H-indole]",< 10 µM

# More lines, now with the values ahead:
row,GI50,Molecule
1,< 10 µM,"CNc1cc(-n2cc(-c3ccc(C(=O)NCCN4CCOCC4)cc3)c3ccc(-c4ccc(OC)cc4)cc32)ncn1 [Example 31, 4-(6-(4-methoxyphenyl)-1-(6-(methylamino)pyrimidin-4-yl)-1H-indol-3-yl)-N-(2-morpholinoethyl)benzamide]"
2,< 10 µM,"CNc1cc(-n2cc(-c3cccc([N+](=O)[O-])c3)c3ccc(-c4ccc(OC)cc4)cc32)ncn1 [Example 26, 6-(6-(4-methoxyphenyl)-3-(3-nitrophenyl)-1H-indol-1-yl)-N-methylpyrimidin-4-amine]"
3,< 10 µM,"CNc1cc(-n2cc(-c3ccc(OC)cc3)c3ccc(-c4cccc(NC(=O)Nc5ccc(Cl)c(C(F)(F)F)c5)c4)cc32)ncn1 [Example 37, 1-(4-chloro-3-(trifluoromethyl)phenyl)-3-(3-(3-(4-methoxyphenyl)-1-(6-(methylamino)pyrimidin-4-yl)-1H-indol-6-yl)phenyl)urea]"
4,< 10 µM,"CNc1cc(-n2cc(-c3cccc(NC(=O)Nc4ccc(Cl)c(C(F)(F)F)c4)c3)c3ccc(-c4ccc(OC)cc4)cc32)ncn1 [Example 45, 1-(4-chloro-3-(trifluoromethyl)phenyl)-3-(3-(6-(4-methoxyphenyl)-1-(6-(methylamino)pyrimidin-4-yl)-1H-indol-3-yl)phenyl)urea]"
5,< 10 µM,"CNc1cc(-n2cc(-c3ccc(OC)cc3)c3ccc(-c4cccc(NC(=O)Nc5ccccc5OC)c4)cc32)ncn1 [Example 39, 1-(2-methoxyphenyl)-3-(3-(3-(4-methoxyphenyl)-1-(6-(methylamino)pyrimidin-4-yl)-1H-indol-6-yl)phenyl)urea]"
6,< 10 µM,4-(6-(4-methoxyphenyl)-1-(6-(methylamino)pyrimidin-4-yl)-1H-indol-3-yl)benzoate [Example 30]
7,< 10 µM,"CNc1cc(-n2cc(-c3cccc(N)c3)c3ccc(-c4ccc(OC)cc4)cc32)ncn1 [Example 27, 6-(3-(3-aminophenyl)-6-(4-methoxyphenyl)-1H-indol-1-yl)-N-methylpyrimidin-4-amine]"

# System: not given
# Test: not given
# Conditions: 600 mg twice a day, clinical; cited from earlier work
row,Molecule,skin toxicity on administration
1,"CNC(=O)c1cc(Oc2ccc(NC(=O)Nc3ccc(Cl)c(C(F)(F)F)c3)cc2)ccn1 [sorafenib, Sorafenib]",grade 3 skin toxicity
